Type in all cases: functional
Assay [1] concerns Mus musculus. The assay is described as follows: Analgesic activity against acetic acid induced mouse model assessed as number of writhes at 5 mg/kg, po administrated for 30 mins followed by acetic acid addition and measured after 20 mins by abdominal constriction test. To be noted: time 50 min.
Assay [2] is described as follows: Antioxidant activity assessed as DPPH radical scavenging activity incubated for 30 mins by spectrophotometric analysis. On the technique in general: Loss of DPPH colour is used to gauge radical scavenging.
The species entered for the next assay is Homo sapiens. The experiment in a line: Antiinflammatory activity against human blood incubated for 15 mins by thermostatic luminometric chemiluminescence based oxidative burst assay.
Assay [3] relates to Mus musculus. The experiment in a line: Analgesic activity against acetic acid induced mouse model assessed as reduction in writhing at 5 mg/kg, po administrated for 30 mins followed by acetic acid addition and measured after 20 mins by abdominal constriction test. Also noted: scale not given: the % may be the effect or the level left. Conditions: time 50 min; call rule not given here.
The test system of assay [4] is Mus musculus. The assay is described as follows: Analgesic activity against acetic acid induced mouse model assessed as number of writhes at 10 mg/kg, po administrated for 30 mins followed by acetic acid addition and measured after 20 mins by abdominal constriction test. To be noted: time 50 min.
The subject of assay [5] is Mus musculus. The experiment in a line: Analgesic activity against acetic acid induced mouse model assessed as reduction in writhing at 10 mg/kg, po administrated for 30 mins followed by acetic acid addition and measured after 20 mins by abdominal constriction test. Also noted: scale not given: the % may be the effect or the level left. Conditions: time 50 min. On the technique in general: Writhing tests count abdominal constrictions after an irritant is injected.

The mark [6] stands for this setting: Homo sapiens, Blood, 0.25 h, read-out: IC50.

Some results are limits rather than exact numbers.

Regarding `CC(C)N1CSC(=S)N(C(C)c2ccccc2)C1` (racemic), the Activity with Mus musculus [1] turned out to be 41.35; in the assay on Mus musculus [3], 4.65%. Further, the figures for the IC50 (in assay [2]; in the assay filed under Homo sapiens (setting [6])) were 78.9 µM and 7.5 µM, respectively. In the case of `CCCCN1CN(CC(=O)O)CSC1=S`, in the assay filed under Homo sapiens, the IC50 entry is listed as “Not Active”.

In the case of `CCCN1CN(CC(=O)O)CSC1=S`, the IC50 in assay [2] came to 76.8 µM; in the assay filed under Homo sapiens (setting [6]) it was 23.8 µM. In the case of `CCN1CN(CC(=O)O)CSC1=S`, the IC50 result in the assay listed under Homo sapiens was “Not Active”. On to `COc1ccc(CN2CN(CC(=O)O)CSC2=S)cc1OC`, for which the IC50 in assay [2] was 81.4 µM; in the assay listed under Homo sapiens (setting [6]), above 100 µM. `CC(C)N1CN(CC(=O)O)CSC1=S`: the IC50 is 87.5 µM in assay [2] and “Not Active” in the assay filed under Homo sapiens. `CCCN1CN(CC(=O)OC)CSC1=S`: in the assay filed under Homo sapiens (setting [6]), the half-inhibitory concentration (IC50) was 32.4 µM. On to `O=C(O)CN1CN(CCO)CSC1=S`, for which the IC50 in assay [2] was 74.6 µM; in the assay listed under Homo sapiens, “Not Active”. Consider `C[C@@H](c1ccccc1)N1CSC(=S)N([C@@H](C)c2ccccc2)C1`, for which the Activity with Mus musculus [1] is on record as 35; in the assay on Mus musculus [3], 18.6%. Also, the IC50 in assay [2] was determined as 69.9 µM. Consider `CCN1CSC(=S)N(CC)C1`, for which the figures for the Activity in the assay with Mus musculus [1] and in the assay on Mus musculus [3] were 40.21 and 6.97%, respectively. The IC50 in the assay filed under Homo sapiens (setting [6]) came out at 5.1 µM. For `CCCN1CN(CC(=O)OCC)CSC1=S`, the values for the Activity in the assay on Mus musculus [1] and with Mus musculus [3] were 29.25 and 32.05%, respectively. In addition, the values for the half-inhibitory concentration (IC50) (in assay [2]; in the assay filed under Homo sapiens (setting [6])) were 87.5 µM and 7.1 µM, respectively.

For the compound `CCCCN1CN(CC(=O)OCC)CSC1=S`, the IC50 in the assay listed under Homo sapiens (setting [6]) stood at 14.4 µM. Regarding `CC(c1ccccc1)N1CN(CC(=O)O)CSC1=S` (racemic), the IC50 in assay [2] came to 67.7 µM; in the assay filed under Homo sapiens (setting [6]), 38.5 µM. `CCCCN1CSC(=S)N(C(C)c2ccccc2)C1` (racemic): the IC50 in the assay filed under Homo sapiens (setting [6]) was above 100 µM. In the case of `CCCCN1CSC(=S)N(CC(=O)O)C1`, in the assay filed under Homo sapiens, the IC50 result was “Not Active”. `CCN1CSC(=S)N(C(C)c2ccccc2)C1` (racemic): the IC50 in assay [2] was 61.2 µM; in the assay filed under Homo sapiens (setting [6]), above 100 µM.

On to `CCCN1CSC(=S)N(C(C)c2ccccc2)C1` (racemic), for which the half-maximal inhibitory concentration (IC50) in assay [2] was determined as 69.9 µM; in the assay listed under Homo sapiens (setting [6]), 16.9 µM. With `CC(c1ccccc1)N1CN(CCO)CSC1=S` (racemic), the concentration for half-maximal inhibition (IC50) in assay [2] is 77.5 µM; in the assay filed under Homo sapiens it was “Not Active”.

With `CCCN1CN(CC(=O)OCc2ccccc2)CSC1=S`, the IC50 in the assay listed under Homo sapiens (setting [6]) is 4.1 µM. Regarding `C[C@H](c1ccccc1)N1CSC(=S)N([C@H](C)c2ccccc2)C1`, the values for the Activity with Mus musculus [1] and in the assay on Mus musculus [3] were 39 and 9.3%, respectively. The IC50 in assay [2] is 65.9 µM. Take `COc1ccc2c(c1)c(CC(=O)O)c(C)n2C(=O)c1ccc(Cl)cc1` [INDOMETHACIN]: the Activity came out at 22.88 with Mus musculus [4] and 48.83% in the assay with Mus musculus [5]. In the case of `CCN1CSC(=S)N(CC(=O)O)C1`, the IC50 result in the assay filed under Homo sapiens is given as “Not Active”.

As for `CCCN1CSC(=S)N(CC(=O)O)C1`, the concentration for half-maximal inhibition (IC50) in assay [2] stood at 93.6 µM; in the assay filed under Homo sapiens (setting [6]), 39.7 µM. Consider `CC(C)Cc1ccc(C(C)C(=O)O)cc1` (stereo unspecified) [IBUPROFEN], for which the IC50 in the assay listed under Homo sapiens (setting [6]) is 11.2 µM.

For orientation: IC50 means the concentration needed to halve the response being measured.

(Values after ChEMBL document CHEMBL5223140, “Highly potent anti-inflammatory, analgesic and antioxidant activities of 3,5-disubstituted tetrahydro-2H-1,3,5-thiadiazine thiones” (Bioorg Med Chem Lett, 2023).)
